Test results taken from ChEMBL document CHEMBL4325918, “Allosteric CB1 Receptor Modulators for the Treatment of CB1 Related Diseases and Conditions” (ACS Med Chem Lett, 2018).
Calls of active or inactive are those of the source. The rule behind the calls is not given here.

What was measured:
[1] = biological target: T1, Cannabinoid receptor 1 (Homo sapiens, UniProt P21554); assay: Allosteric modulation of CB1 receptor (unknown origin) assessed as inhibition of CP55940-induced [35S]GTPgammaS binding; assay type: functional
T1 sequence (P21554 whole entry): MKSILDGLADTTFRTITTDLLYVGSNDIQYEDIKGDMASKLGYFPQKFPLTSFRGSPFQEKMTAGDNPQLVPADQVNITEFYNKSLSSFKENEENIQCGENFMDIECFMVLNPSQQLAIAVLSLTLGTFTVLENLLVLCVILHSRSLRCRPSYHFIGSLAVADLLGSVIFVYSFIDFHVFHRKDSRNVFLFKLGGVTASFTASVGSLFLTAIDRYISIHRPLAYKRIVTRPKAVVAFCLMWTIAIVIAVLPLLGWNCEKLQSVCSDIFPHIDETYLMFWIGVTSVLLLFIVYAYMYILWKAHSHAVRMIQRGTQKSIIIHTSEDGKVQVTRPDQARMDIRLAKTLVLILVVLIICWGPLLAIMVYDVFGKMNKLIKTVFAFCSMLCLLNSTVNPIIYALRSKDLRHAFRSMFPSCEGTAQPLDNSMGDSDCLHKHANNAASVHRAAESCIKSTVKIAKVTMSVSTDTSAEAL

[2] = biological target: T1, Cannabinoid receptor 1; assay: Agonist activity at CB1 receptor (unknown origin) relative to CP55940
[3] = system: Rattus norvegicus; assay: Reduction in cocaine-induced reinstatement of cocaine seeking behavior in Sprague-Dawley rat at 10 mg/kg; assay type: functional, organism-based
[4] = Half life in Sprague-Dawley rat; assay type: ADME; conditions: in vivo

| IC50 [1] [nM] | Emax [2] [%] | half-life [4] [h] | SMILES | Activity [3] |
| --- | --- | --- | --- | --- |
| 372 | 4.6 |  | Cc1ccc(-c2cccc(NC(=O)Nc3ccc(Cl)cc3)c2)s1 |  |
| 776 | 3.7 |  | Cc1cc(-c2cccc(NC(=O)Nc3ccc(Cl)cc3)c2)cs1 |  |
| 164 | 28.9 |  | O=C(Nc1ccc(Cl)cc1)Nc1cccc(-c2ccsc2)c1 |  |
| 2650 |  |  | O=C(Nc1ccc(Cl)cc1)Nc1cccc(-c2ccccn2)c1 |  |
| 151 |  | 5 | O=C(Nc1ccc(Cl)cc1)Nc1cccc(-c2ccc(F)cc2)c1 | Active |
| 437 |  |  | O=C(Nc1ccc(Cl)cc1)Nc1cccc(-c2ccccc2)c1 |  |

The next lines start with the compound.

| SMILES | IC50 [1] [nM] | Emax [2] [%] | half-life [4] [h] | Activity [3] |
| --- | --- | --- | --- | --- |
| O=C(Nc1ccc(Cl)cc1)Nc1cccc(-c2cc(Cl)cc(Cl)c2)c1 | 299 |  |  |  |
| O=C(Nc1ccc(Cl)cc1)Nc1cccc(-c2ccoc2)c1 | 440 |  |  |  |
| O=C(Nc1ccc(Cl)cc1)Nc1cccc(-c2ccc(F)cc2F)c1 | 353 |  |  |  |
| O=C(Nc1ccc(Cl)cc1)Nc1cccc(-c2cccc([N+](=O)[O-])c2)c1 | 452 |  |  |  |
| O=C(Nc1ccc(Cl)cc1)Nc1cccc(N2CCC2)c1 | 1380 |  |  |  |
